In patent US10253041B2, “7-phenylethylamino-4H-pyrimido[4,5-d][1,3]oxazin-2-one compounds and their use as mutant IDH1 inhibitors” (Eli Lilly and Company, priority 2015, dated 2019):
Structures can show the parent of a compound that is named as a salt. Where two headings read alike, the source gives them in different places.

Legend:
IDH1/R132H = biological target: T1, IDH1/R132H (Homo sapiens, UniProt O75874, R132H); assay: Biochemical assay for IDH1 R132H mutant enzyme (2HG by RapidFire MS); conditions: mean ± standard deviation of the mean; 90 minutes reaction
T1 construct: His-tag (N); made in house; host or cells: E. coli
Method: (§1) IDH1-R132H, IDH1-R132C, IDH2-R172K and IDH2-R140Q mutant enzymes catalyze the conversion of αKG to 2HG. 2HG is analyzed using in-line solid phase extraction and mass spectrometry. This analysis is carried out in a RapidFire® instrument coupled to a 6460 triple quadrupole mass spectrometer (G6460A Agilent).
(§2) IDH1 mutant (R132H and R132C) and IDH2 mutant (R140Q and R172K) proteins containing N-terminal His-tag are expressed in E. coli and purified using nickel affinity chromatography. The enzyme assays are carried out in V-bottom 96 well polypropylene plates containing 100 mM Tris-HCl buffer, 1 mM DTT, 0.005% TRITON™ X-100, 120 mM NaCl. For IDH1 R132H, α-ketoglutarate, NADPH and MnCl2 are included at final concentrations of 300 μM, 2.5 μM and 300 μM respectively. For IDH1 R132C, α-ketoglutarate, NADPH and MnCl2 are included at final concentrations of 100 μM, 10 μM and 100 μM respectively. For IDH2 R172K, α-ketoglutarate, NADPH and MnCl2 are included at final concentrations of 150 μM, 10 μM and 150 μM respectively. For IDH2 R140Q, α-ketoglutarate, NADPH and MnCl2 are included at final concentrations of 3000 μM, 10 μM and 100 μM respectively. Final pH=7.0. Test compound dissolved in DMSO stock is diluted in the reaction mix at a final DMSO concentration of 4%. Compounds are tested in dose-response format. The assay is started by addition of enzyme. Enzymes are used at the following final concentrations: IDH1 R132H, 2 nM; IDH1 R132C, 0.5 nM; IDH2 R172K, 1.2 nM; IDH2 R140Q, 1.2 nM. After 90 minutes the reaction is quenched by adding ACN (50:50) containing 3-hydroxy-1,5-pentanedioic-2,2,3,4,4-d5 acid (5d5-3HG) as an internal standard for mass spectrometry analysis and quantitation of reaction product. 2-Hydroxyglutarate (2HG) in quenched samples is separated using strong anionic exchange column chromatography (Phenomenex Strata-X-A SecurityGuard) and analyzed by mass spectrometry in a 6460 triple quadrupole mass spectrometer (G6460A Agilent). The 2HG signal detected is transformed into an analyte concentration using a calibration curve generated using known 2HG concentrations. […] IC50 values are obtained from the individual % inhibition values at different compound concentrations using a 4-parameter equation. These calculations are carried out using Activity Base (IDBS) or Screener (Genedata) data analysis programs.

IDH1/R132C = biological target: T2, IDH1/R132C (Homo sapiens, UniProt O75874, R132C); assay: Biochemical assay for IDH1 R132C mutant enzyme (2HG by RapidFire MS); conditions: mean ± standard deviation of the mean; 90 minutes reaction
T2 construct: His-tag (N); made in house; host or cells: E. coli
Method: as §1, §2

[1] = test system: IDH1 mutant R132C in fibrosarcoma cell line HT1080; assay: HT1080 cell assay (intracellular 2HG and αKG); format: cell-based; conditions: Homo sapiens, 1 hour + 18 hours incubation
Method: (§3) To test the cellular inhibition of IDH1 mutant R132C, the fibrosarcoma cell line HT1080 (purchased from ATCC) is used. For testing cell-based inhibition of the R132H mutation, the U87MG glioma cell line (ATCC) was stably transfected with a DNA construct expressing the R132H mutant enzyme.
Fifteen thousand cells are plated in poly-D-lys coated 96 well plates (15,000 cells/well) 18-24 hours prior to treatment with compounds. Four hours prior to compound treatment, cells are glutamine-starved by removing normal media and replacing with glutamine-free media. Following starvation, cells are then treated with different concentrations of test compounds (20 μM to 1 nM) dissolved in glutamine free media containing DMSO at a final concentration of 0.2%. The initial compound incubation is for 1 hour at 37° C./5% CO2. After 1 hour, glutamine is added to a final 2 mM concentration and the treated cells are then incubated for a further 18 hours at 37° C./5% CO2. Following the 18 hour incubation, intracellular 2HG and αKG are analyzed in cell lysates. Lysates are prepared following removal of media and addition of buffer containing 25 mM Tris-HCl pH 7.5, 150 mM NaCl, 1 mM EDTA, 1 mM EGTA/1% Triton-X 100 to the cells. An aliquot of lysate is added to a mix of d6-αKG and d5-3HG as internal standards and the mixture is treated with O-benzylhydroxylamine in the presence of N-(3-dimethylaminopropyl)-N′-ethylcarbodiimide hydrochloride (EDC) and pyridine. Analyte derivatives are then extracted with EtOAc, dried, and then reconstituted with 50% MeOH in H2O. Samples prepared as described are injected into the HPLC to separate 2HG and αKG derivatives (and corresponding internal standards) using a reverse phase chromatography in a C18 column. Analysis of the samples is carried out using a 6460 triple quadrupole mass spectrometer (G6460A Agilent). The 2HG and αKG signals detected are transformed into analyte concentration using the ratio of αKG/d6-αKG and the ratio of 2HG/d5-3HG that is extrapolated within a calibration curve. Percent inhibition for each individual sample is obtained after normalizing calculated 2HG or aKG concentration to maximum and minimum references obtained in the presence and in the absence of glutamine during cell treatment with compounds. IC50 values are obtained from individual % inhibition using a sigmoidal dose-response 4-parameter equation. These calculations are carried out automatically using Activity Base (IDBS) or Screener (Genedata) data analysis programs.

[2] = test system: IDH1/R132H in U87MG glioma cells; assay: U87MG/IDH1R132H cell assay (intracellular 2HG); format: cell-based; conditions: Homo sapiens, U-87 MG, 19 h, 1 hour + 18 hours incubation, read-out: U87MG (IDH1/R132H 2-hydroxyglutarate IC50)
Method: as §3
Cells are plated in poly-D-lys coated 96 well plates (12,000 cells/well) 18-24 hours previous to treatment with compounds. Four hours prior to compound treatment, cells are glutamine-starved by removing normal media and replacing with glutamine-free media. Following starvation, cells are then treated with different concentrations of test compounds (20 μM to 1 nM) dissolved in glutamine free media containing DMSO at a final concentration of 0.2%. The initial compound incubation is for 1 hour at 37° C./5% CO2. After 1 hour, glutamine is added to a final 2 mM concentration and the treated cells are then incubated for a further 18 hours at 37° C./5% CO2. Intracellular 2HG is analyzed in cell lysates obtained after media removal and treatment with lysis buffer (25 mM Tris-HCl pH 7.5, 150 mM NaCl, 1 mM EDTA, 1 mM EGTA/1% Triton-X 100). Cell lysates are conserved at −80° C. until processing. For analyte extraction, an aliquot of thawed lysate is transferred to a deep 96-well plate and treated with cold MeOH containing d5-3HG as an internal standard followed by chloroform and H2O (1:4:3:2). The upper phase is collected after separation and injected in HPLC to separate 2HG (and internal standard) using hydrophilic interaction (HILIC) chromatography coupled to MS/MS detection in a 6460 triple quadrupole mass spectrometer. Percent inhibition for each individual sample is obtained after normalizing calculated 2HG concentration to maximum and minimum references obtained in the presence and in the absence of glutamine during cell treatment with compounds. IC50 values are obtained from individual % inhibition using a sigmoidal dose-response 4-parameter equation. These calculations are carried out automatically using Activity Base (IDBS) or Screener (Genedata) data analysis programs.

[3] = HT-1080, 19 h, intracellular 2HG, read-out: HT1080 (R132C, 2-hydroxyglutarate) IC50
[4] = HT-1080, intracellular αKG, read-out: HT1080 (R132C, αKG) IC50

T1 sequence (O75874 whole entry R132H): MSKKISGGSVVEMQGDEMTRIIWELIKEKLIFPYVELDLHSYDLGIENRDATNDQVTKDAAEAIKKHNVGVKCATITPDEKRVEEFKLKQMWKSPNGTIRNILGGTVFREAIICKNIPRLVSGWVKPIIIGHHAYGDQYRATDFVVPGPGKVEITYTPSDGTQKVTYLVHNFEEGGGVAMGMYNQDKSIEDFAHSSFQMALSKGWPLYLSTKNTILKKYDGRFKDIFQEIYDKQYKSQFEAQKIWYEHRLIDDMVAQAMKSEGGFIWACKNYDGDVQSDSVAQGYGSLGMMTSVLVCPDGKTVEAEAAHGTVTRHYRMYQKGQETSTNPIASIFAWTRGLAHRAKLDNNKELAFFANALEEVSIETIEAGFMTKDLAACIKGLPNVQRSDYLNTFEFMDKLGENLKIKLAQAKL
T2 sequence (O75874 whole entry R132C): as the sequence (O75874 whole entry R132H) above, with H132C counted along it

SMILES	IC50 (IDH1/R132H)	IC50 (IDH1/R132C)	IC50 [1, 3]	IC50 [1, 4]	IC50 [2]
C=CC(=O)N1CCN(Cc2ccc([C@H](C)Nc3ncc4c(n3)N(CC)C(=O)OC4)cc2)CC1 [Example 23, 1-Ethyl-7-[[(1S)-1-[4-[(4-prop-2-enoylpiperazin-1-yl)methyl]phenyl]ethyl]amino]-4H-pyrimido[4,5-d][1,3]oxazin-2-one 4-hydroxybenzoic acid salt]	0.188 ± 0.048 µM	0.234 ± 0.067 µM	0.0321 ± 0.0136 µM	> 20 µM	0.00903 ± 0.00075 µM
C=CC(=O)N1CCN(c2ccc([C@H](C)Nc3ncc4c(n3)N(CC)C(=O)OC4)cc2)CC1 [Example 18, 1-Ethyl-7-[[(1S)-1-[4-(4-prop-2-enoylpiperazin-1-yl)phenyl]ethyl]amino]-4H-pyrimido[4,5-d][1,3]oxazin-2-one]	0.211 µM	0.192 µM	0.38 ± 0.13 µM	> 20 µM	0.0707 µM
